target: T1, Ba/F3 cell EGFR Exon20 ins NPH (Homo sapiens, UniProt P00533, INS773NPH); test: Ba/F3 cell proliferation suppression, EGFR Exon20 ins NPH; type: cell-based; conditions: GI50 class; Ba/F3 cell line with NPH inserted at Exon20 of EGFR; 72 hours
T1 construct: expressed in transfected cells; host or cells: Ba/F3
Procedure, shortened: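 Cells were seeded 24 h before dosing and then treated for 72 hours with compound at final concentrations of 0.3 nM to 50 um. Live cells were measured by CellTiter-Glo luminescence, and GI50 values were derived from growth ratio relative to control across three repeats.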

| Ba/F3 (NPH) Activity | SMILES |
| --- | --- |
| A (GI50 < 50 nM) | C=CC(=O)Nc1cc(Nc2cc(N3OCC[C@@H]3c3cccc4ccccc34)ncn2)c(OC)cc1N1CCC(N(C)C)CC1 [compound 442, N-(2-(4-methoxy-5-((6-(dimethylamino)piperidine-1-yl)-4-((R)-3-(naphthalene-1-yl)isoxazolidine-2-yl)pyrimidine-4-yl)amino)phenyl) acrylamide] |
| A (GI50 < 50 nM) | C=CC(=O)Nc1cc(Nc2cc(N3OCC[C@@H]3c3ccccc3)ncn2)c(OC)cc1N1CCC(N2CCN(C3CCOCC3)CC2)CC1 [Example 102, N-(4-methoxy-5-((6-((R)-3-phenylisoxazolidine-2-yl)pyrimidine-4-yl)amino)-2-(4-(4-(tetrahydro-2H-pyran-4-yl)piperazine-yl)piperidine-yl)phenyl)acrylamide] |
| A (GI50 < 50 nM) | C=CC(=O)Nc1cc(Nc2cc(N3OCC[C@@H]3c3cccs3)ncn2)c(OC)cc1N1CCC(N2C[C@H]3C[C@@H]2CO3)CC1 [compound 930, N-(2-(4-((1R,4R)-2-oxa-5-azabicyclo [2.2.1]heptane-5-yl)piperidine-1-yl)-4-methoxy-5-((6-((R)-3-(thiophene-2-yl)isoxazolidine-2-yl)pyrimidine-4-yl)amino)phenyl)acrylamide] |
| A (GI50 < 50 nM) | C=CC(=O)Nc1cc(Nc2cc(N3OCC[C@@H]3Cc3cccc(Cl)c3C)ncn2)c(OC)cc1N1CCC(N2C[C@@H]3C[C@H]2CO3)CC1 [compound 1029, N-(2-(4-((1S,4S)-2-oxa-5-azabicyclo [2.2.1]heptane-5-yl)piperidine-1-yl)-5-((6-((S)-3-(3-chloro-2-methylbenzyl)isoxazolidine-2-yl)pyrimidine-4-yl)amino)-4-methoxyphenyl) acrylamide] |
| B (50 nM ≤ GI50 < 500 nM) | C=CC(=O)Nc1cc(Nc2cc(N3OCC[C@@H]3c3cccc(C#N)c3)ncn2)c(OC)cc1N1CCC(N2CCN(CC)CC2)CC1 [compound 399, N-(5-((6-((R)-3-(3-cyanophenyl)isoxazolidine-2-yl)pyrimidine-4-yl)amino)-2-(4-(4-ethylpiperazine-1-yl)piperidine-1-yl)-4-methoxyphenyl) acrylamide] |
| A (GI50 < 50 nM) | C=CC(=O)Nc1cc(Nc2cc(N3OCC[C@@H]3c3cccc(F)c3Cl)ncn2)c(OC)cc1N1CC[C@@H](N(C)C)C1 [compound 558, N-(5-((6-((R)-3-(2-chloro-3-fluorophenyl)isoxazolidine-2-yl)pyrimidine-4-yl)amino)-2-((R)-3-(dimethylamino)pyrolidine-1-yl)-4-methoxyphenyl) acrylamide] |
| A (GI50 < 50 nM) | C=CC(=O)Nc1cc(Nc2cc(N3OCC[C@@H]3c3cc(F)ccc3F)ncn2)c(OC)cc1N1C[C@@H]2CCN(C)[C@@H]2C1 [compound 893, N-(5-((6-((R)-3-(2,5-difluorophenyl)isoxazolidine-2-yl)pyrimidine-4-yl)amino)-4-methoxy-2-((3aS,6aS)-1-methylhexahydropyrrolo [3,4-b]pyrrole-5(1H)-yl)phenyl) acrylamide] |
| A (GI50 < 50 nM) | C=CC(=O)Nc1cc(Nc2cc(N3OCC[C@@H]3c3ccc(Cl)c(F)c3)ncn2)c(OC)cc1N1CCC(N2CCN(C3COC3)CC2)CC1 [Example 83, N-(5-((6-((R)-3-(4-chloro-3-fluorophenyl)isoxazolidine-2-yl)pyrimidine-4-yl)amino)-4-methoxy-2-(4-(4-(oxetane-3-yl)piperazine-1-yl)piperidine-1-yl)phenyl)acrylamide] |
| A (GI50 < 50 nM) | C=CC(=O)Nc1cc(Nc2cc(N3OCC[C@@H]3c3cc(F)cc(F)c3)ncn2)c(OC)cc1N1CCC(N2C[C@H]3COC[C@H]3C2)CC1 [Example 105, N-(5-((6-((R)-3-(3,5-difluorophenyl)isoxazolidine-2-yl)pyrimidine-4-yl)amino)-4-methoxy-2-(4-((3aR, 6aS)-tetrahydro-1H-puro[3,4-c]pyrrole-5(3H)-yl)piperidine-1-yl)phenyl)acrylamide] |
| A (GI50 < 50 nM) | C=CC(=O)Nc1cc(Nc2cc(N3OCC[C@@H]3Cc3cc(F)cc(F)c3)ncn2)c(OC)cc1N1CCC(N2C[C@H]3C[C@@H]2CO3)CC1 [compound 1034, N-(2-(4-((1R,4R)-2-oxa-5-azabicyclo [2.2.1]heptane-5-yl)piperidine-1-yl)-5-((6-((S)-3-(3,5-difluorobenzyl)isoxazolidine-2-yl)pyrimidine-4-yl)amino)-4-methoxyphenyl) acrylamide] |
| A (GI50 < 50 nM) | C=CC(=O)Nc1cc(Nc2cc(N3OCC[C@@H]3c3cc(F)cc(F)c3)ncn2)c(OC)cc1N1CCC(N2CCN(C3CC3)[C@H](C)C2)CC1 [Example 109, N-(2-(4-((R)-4-cyclopropyl-3-methylpiperazine-1-yl)piperidine-1-yl)-5-((6-((R)-3-(3,5-difluorophenyl)isoxazolidine-2-yl)pyrimidine-4-yl)amino)-4-methoxyphenyl) acrylamide] |
| A (GI50 < 50 nM) | C=CC(=O)Nc1cc(Nc2cc(N3OCC[C@@H]3c3ccccc3)ncn2)c(OC)cc1N1CCC(N2C[C@@H](C)O[C@@H](C)C2)CC1 [Example 285, N-(2-(4-((2S,6R)-2,6-dimethylmorpholino)piperidine-1-yl)-4-methoxy-5-((6-((R)-3-phenylisoxazolidine-2-yl)pyrimidine-4-yl)amino)phenyl) acrylamide] |
| A (GI50 < 50 nM) | C=CC(=O)Nc1cc(Nc2cc(N3OCC[C@@H]3c3ccc(F)c(Cl)c3F)ncn2)c(OC)cc1N1CCC(N(C)C)CC1 [compound 638, N-(5-((6-((R)-3-(3-chloro-2,4-difluorophenyl)isoxazolidine-2-yl)pyrimidine-4-yl)amino)-2-(4-(dimethylamino)piperidine-1-yl)-4-methoxyphenyl) acrylamide] |
| C (500 nM ≤ GI50 < 5000 nM) | C=CC(=O)Nc1cc(Nc2cc(N3OCC[C@@H]3c3ccc4ccccc4c3)ncn2)c(OC)cc1N1C[C@H](C)O[C@@H](C)C1 [compound 660, N-(2-((2S,6S)-2,6-dimethylmorpholino)-4-methoxy-5-((6-((R)-3-(naphthalene-2-yl)isoxazolidine-2-yl)pyrimidine-4-yl)amino)phenyl)acrylamide] |
| A (GI50 < 50 nM) | C=CC(=O)Nc1cc(Nc2cc(N3OCC[C@@H]3c3cccc(C)c3F)ncn2)c(OC)cc1N1CCC(N2CCN(C(C)C)CC2)CC1 [compound 911, N-(5-((6-((R)-3-(2-fluoro-3-methylphenyl)isoxazolidine-2-yl)pyrimidine-4-yl)amino)-2-(4-(4-isopropylpiperazine-1-yl)piperidine-1-yl)-4-methoxyphenyl) acrylamide] |
| A (GI50 < 50 nM) | C=CC(=O)Nc1cc(Nc2cc(N3OCC[C@@H]3c3ccc(F)c(F)c3)ncn2)c(OC)cc1N1CCC(N2CCN(C)CC2)CC1 [compound 502, N-(5-((6-((R)-3-(3,4-difluorophenyl)isoxazolidine-2-yl)pyrimidine-4-yl)amino)-4-methoxy-2-(4-(4-methylpiperazine-1-yl)piperidine-1-yl)phenyl) acrylamide] |
| B (50 nM ≤ GI50 < 500 nM) | C=CC(=O)Nc1cc(Nc2cc(N3OCC[C@@H]3c3cccc(Cl)c3)ncn2)c(OC)cc1N1CCN(C2CC2)CC1 [compound 463, N-(5-((6-((R)-3-(3-chlorophenyl)isoxazolidine-2-yl)pyrimidine-4-yl)amino)-2-(4-cyclopropylpiperazine-1-yl)-4-methoxyphenyl) acrylamide] |
| B (50 nM ≤ GI50 < 500 nM) | C=CC(=O)Nc1cc(Nc2cc(N3OCC[C@@H]3c3ccc(C)nc3)ncn2)c(OC)cc1N1CCC(N2CC[C@@H](N(C)C)C2)CC1 [Example 231, N-(2-(4-((R)-3-(dimethylamino)pyrolidine-1-yl)piperidine-1-yl)-4-methoxy-5-((6-((R)-3-(6-methylpyridine-3-yl)isoxazolidine-2-yl)pyrimidine-4-yl)amino)phenyl)acrylamide] |
| A (GI50 < 50 nM) | C=CC(=O)Nc1cc(Nc2cc(N3OCC[C@@H]3c3cccc(F)c3F)ncn2)c(OC)cc1N1CCN(C)[C@H](C)C1 [compound 884, N-(5-((6-((R)-3-(2,3-difluorophenyl)isoxazolidine-2-yl)pyrimidine-4-yl)amino)-2-((R)-3,4-dimethylpiperazine-1-yl)-4-methoxyphenyl) acrylamide] |
| B (50 nM ≤ GI50 < 500 nM) | C=CC(=O)Nc1cc(Nc2cc(N3OCC[C@@H]3c3c(F)ccc(F)c3F)ncn2)c(OC)cc1N1CC[C@@H](N(C)C)C1 [compound 630, N-(2-((R)-3-(dimethylamino)pyrolidine-1-yl)-4-methoxy-5-((6-((R)-3-(2,3,6-trifluorophenyl)isoxazolidine-2-yl)pyrimidine-4-yl)amino)phenyl)acrylamide] |
| B (50 nM ≤ GI50 < 500 nM) | C=CC(=O)Nc1cc(Nc2cc(N3OCC[C@@H]3c3cc(F)cc(F)c3)ncn2)c(OC)cc1N1C[C@H]2C[C@@H]1CO2 [compound 436, N-(2-((1R,4R)-2-oxa-5-azabicyclo[2.2.1]heptane-5-yl)-5-((6-((R)-3-(3,5-difluorophenyl)isoxazolidine-2-yl)pyrimidine-4-yl)amino)-4-methoxyphenyl) acrylamide] |
| B (50 nM ≤ GI50 < 500 nM) | C=CC(=O)Nc1cc(Nc2cc(N3OCC[C@@H]3c3ccc4ccccc4c3)ncn2)c(OC)cc1N1CCC(N2CCN(CC)CC2)CC1 [compound 515, N-(2-(4-(4-ethylpiperazine-1-yl)piperidine-1-yl)-4-methoxy-5-((6-((R)-3-(naphthalene-2-yl)isoxazolidine-2-yl)pyrimidine-4-yl)amino)phenyl)acrylamide] |
| A (GI50 < 50 nM) | C=CC(=O)Nc1cc(Nc2cc(N3OCC[C@@H]3Cc3cc(F)cc(F)c3)ncn2)c(OC)cc1N1CCC(N2CCN(C3CC3)CC2)CC1 [compound 1033, N-(2-(4-(4-cyclopropylpiperazine-1-yl)piperidine-1-yl)-5-((6-((S)-3-(3,5-difluorobenzyl)isoxazolidine-2-yl)pyrimidine-4-yl)amino)-4-methoxyphenyl) acrylamide] |

Reference: US12157730B2, “Heteroaryl derivative, method for producing same, and pharmaceutical composition comprising same as effective component” (VORONOI INC., priority 2019, dated 2024)
